From US6630482B1, “CFTR channel activator compounds and pharmaceutical compositions containing same” (Centre National de la Recherche Scientifique, priority 1996, dated 2003)
Where two headings read alike, the source gives them in different places.

Columns and labels:
CFTR channel [1] = target: T1, CFTR channel (Homo sapiens, UniProt P13569); experiment: Efflux of radioactive iodide in recombinant CHO (CFTR+) cells; type: cell-based; parameters: expressed in transfected cells; host or cells: CHO-K1 cells, vector pNUT; conditions: for effect on the efflux of iodide / CFTR channel activation: 500 μM; for activation at 500 µM: read-out: % activation relative to control
T1 sequence (P13569 whole entry): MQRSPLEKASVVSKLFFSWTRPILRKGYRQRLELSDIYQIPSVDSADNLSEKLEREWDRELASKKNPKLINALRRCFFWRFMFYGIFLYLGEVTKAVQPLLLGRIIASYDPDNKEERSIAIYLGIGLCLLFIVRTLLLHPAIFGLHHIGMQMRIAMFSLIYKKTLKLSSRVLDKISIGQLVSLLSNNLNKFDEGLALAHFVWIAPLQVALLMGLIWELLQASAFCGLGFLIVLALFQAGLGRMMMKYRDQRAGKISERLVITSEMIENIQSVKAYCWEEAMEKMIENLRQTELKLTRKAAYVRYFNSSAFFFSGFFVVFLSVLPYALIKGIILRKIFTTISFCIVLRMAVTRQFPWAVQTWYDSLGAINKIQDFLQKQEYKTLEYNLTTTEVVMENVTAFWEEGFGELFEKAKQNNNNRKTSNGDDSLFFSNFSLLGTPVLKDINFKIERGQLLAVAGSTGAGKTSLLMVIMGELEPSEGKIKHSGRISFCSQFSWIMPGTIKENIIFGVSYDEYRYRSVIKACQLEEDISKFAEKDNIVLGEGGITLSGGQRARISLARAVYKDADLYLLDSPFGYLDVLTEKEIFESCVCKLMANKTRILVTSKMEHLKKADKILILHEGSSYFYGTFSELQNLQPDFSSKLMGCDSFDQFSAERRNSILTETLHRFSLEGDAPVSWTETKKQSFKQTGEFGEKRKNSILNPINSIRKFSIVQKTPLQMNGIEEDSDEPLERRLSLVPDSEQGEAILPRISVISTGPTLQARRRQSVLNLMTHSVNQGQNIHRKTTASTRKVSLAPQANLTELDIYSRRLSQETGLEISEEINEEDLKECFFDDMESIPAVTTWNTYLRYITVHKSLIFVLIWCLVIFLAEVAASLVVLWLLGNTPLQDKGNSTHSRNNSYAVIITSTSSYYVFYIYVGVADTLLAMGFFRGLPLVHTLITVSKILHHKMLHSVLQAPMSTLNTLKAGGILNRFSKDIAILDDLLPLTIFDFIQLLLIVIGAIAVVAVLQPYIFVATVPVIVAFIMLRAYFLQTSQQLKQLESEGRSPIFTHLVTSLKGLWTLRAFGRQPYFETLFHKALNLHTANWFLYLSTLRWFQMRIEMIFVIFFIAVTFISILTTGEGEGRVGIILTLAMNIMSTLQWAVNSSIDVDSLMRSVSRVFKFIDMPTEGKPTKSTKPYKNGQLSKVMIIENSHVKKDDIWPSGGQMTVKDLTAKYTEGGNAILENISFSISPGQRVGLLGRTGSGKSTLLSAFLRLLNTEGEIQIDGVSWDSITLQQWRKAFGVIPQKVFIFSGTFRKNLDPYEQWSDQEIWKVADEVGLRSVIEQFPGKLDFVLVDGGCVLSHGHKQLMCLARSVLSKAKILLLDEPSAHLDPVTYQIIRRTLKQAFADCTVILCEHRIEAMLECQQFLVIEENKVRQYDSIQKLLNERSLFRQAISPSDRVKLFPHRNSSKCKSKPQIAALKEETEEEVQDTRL
Experimental: (§1) Several types of cells are used for this study: the intestinal lines T84, Caco-2 and HT 29. Chinese hamster ovary (CHO-K1) cells were transfected with the aid of the vector pNUT (Tabcharani et al., 1991) with or without (control cells) incorporation of normal or mutated CFTR cDNA (Chang et al., 1993). The cells are kept in this specific medium and then inoculated at a low density on to glass slides and cultured at 37° C. (5% CO2), before the patch clamping experiments. The survival medium of the cells is composed of αMEM with foetal calf serum (7%) and antibiotics: 50 IU/ml penicillin and 50 μg/ml streptomycin and methotrexate (100 μM to 200 μM).
(§2) This technique enables the kinetics of the exit of iodide to be monitored. The cells are cultured in 12-well plates with a dilution to 1/10 after passage. On day 3, the drugs to be tested are dissolved in medium B (37° C.) according to the required concentration. The wells are washed twice with 1 ml of medium B NaOH, 0.1% glucose, which is then replaced by 1 ml of charging solution for 30 min.
(§3) The operation is repeated over 10 min and the cells are then detached with 1 ml of NaOH 0.1N SDS 0.1%. The contents of each well are collected in a haemolysis tube after agitation for 25 min, and the tubes are counted for 2 min in a gamma counter.
(§4) The study relates to molecules of the benzoquinolizinium family described above. They are tested for their ability to activate the CFTR channel. Screening of molecules as openers of the CFTR channel was carried out by measuring their effect on the efflux of radioactive iodide and on the transmembrane chloride currents (Becq et al., 1993a).
2) CHO cell: efflux of radioactive iodide in
CHO cells transfected with the CFTR chain (labelled CHO-CFTR (+) on FIG. 2B) in the presence or absence of the abovementioned activators.

CFTR channel [2] = target: T1, CFTR channel; experiment: Patch clamping, CFTR channel activation; type: cell-based; parameters: expressed in transfected cells; host or cells: CHO-K1 cells, vector pNUT; conditions: rolipram
Experimental: The patch clamping experiments are carried out on confluent cells. A fragment of the glass slide (cell support) is placed in an experimental chamber (volume 600 μl or 1 ml) on the platen of an inverted microscope fitted with phase contrast illumination (Olympus IMT2). The cell-attached and inside-out configurations are used (Hamill et al., 1981). The experiments are carried out at room temperature (20-22° C.). The currents are amplified with a LIST EPC 7 amplifier (Darmstadt, Germany) (filter of 3 kHz) with a low-pass filter of 2-5 kHz (6-pole Bessel filter) and recorded with a DAT (digital audio tape) after digitalization (16 bits) at 44 kHz. The data are then transferred to an Olivetti M28PC computer. The pipettes are made from glass tubes of 1 mm diameter (Clarke Electromedical Instrument) in two or three stages with a horizontal drawer (Flaming/Brown type, model P-87. Sutter. Inst. Co. USA). The pipettes filled with a solution of 150 mM NaCI have a resistance of between 4 and 12 MΩ. The potentials are expressed as the difference between the potential of the patch electrode and that of the bath. […] The diffusion potentials are evaluated from the potential of the electrode corresponding to a zero current (when the channels are closed). […] To determine the current-voltage ratio, the ionic current amplitudes are measured form amplitude histograms. […]

intracellular cAMP = experiment: Level of intracellular cAMP in recombinant CHO cell; type: cell-based, Chinese hamster; conditions: after 5 min
Experimental: as §4
FIG. 12: Histograms representing the levels of cAMP (measured in nmol per mg of protein) in the CHO cells which have been transfected with the CFTR gene and have not been activated (basal), or have been activated by forskoline (forskoline), or have been activated by rolipram (rolipram), or have been activated by MPB-07 (MPB-07).

CHO (CFTR−) cells = experiment: Efflux of radioactive iodide in control CHO (CFTR−) cells not transfected with CFTR; type: cell-based, Chinese hamster
Text: CHO cells which have not been transfected with the protein CFTR (labelled CHO-CFTR (−) on FIG. 2 B) in the presence or absence of the abovementioned activators:

CFTR channel [3] = target: T1, CFTR channel; experiment: Efflux of radioactive iodide in HT29 cells; type: cell-based; parameters: the human colon cell of the line HT29 which expresses the protein CFTR constitutively; endogenous in cells; host or cells: HT29 human colon cells; conditions: 500 μM
Experimental: as §1, §2, §3

CFTR channel [4] = target: T1, CFTR channel; experiment: Efflux of radioactive iodide in Xenopus ovocyte injected with cRNA-CFTR; type: cell-based; conditions: Xenopus ovocyte expressing CFTR, 500 μM
[5] = efflux of iodide, recombinant CHO (CFTR+) cell, MPB and phenanthrene 500 μM

c1ccc2c(c1)ccc1ccccc12 [phenanthrene, reference compound]
effect on the efflux of iodide / CFTR channel activation (CFTR channel [1]; CHO (CFTR+) cells): does not activate the CFTR channel
activation at 500 µM (CFTR channel [1]; [5]): < 5%

Oc1cc2cccc[n+]2c2ccccc12 [MPB-05, 6-Hydroxybenzo[c]quinolizinium Chloride]
activation at 500 µM (CFTR channel [1]; [5]): 20%

Nc1cc2cccc[n+]2c2cc(Cl)ccc12 [MPB-03, 6-Amino, 9-Chlorobenzo[c]quinolizinium Chloride]
activation at 500 µM (CFTR channel [1]; [5]): 18%

COc1ccc(C2CNC(=O)C2)cc1OC1CCCC1 (centres unmarked) [rolipram]
effect as a CFTR activator measured by patch clamping (CFTR channel [2]): has no effect as a CFTR activator
effect as a CFTR activator measured by the flow of iodide (CFTR channel [1]; rolipram): has no effect as a CFTR activator
level of cell cAMP (intracellular cAMP; 10 μM): The same level of cAMP is reached in the presence of the compounds MPB-07 and rolipram

Oc1cc2cccc[n+]2c2cccc(Cl)c12 [MPB-27, 6-Hydroxy, 7-Chlorobenzo[c]quinolizinium Chloride]
activation at 500 µM (CFTR channel [1]; [5]): 95%

Oc1cc2ccccc2c2ccccc12 [MPB-25]
activation at 500 µM (CFTR channel [1]): 25%

Oc1cc2cccc[n+]2c2c(Cl)cccc12.[Cl-] [MPB-07, 6-Hydroxy, 10-Chlorobenzo[c]quinolizinium Chloride]
effect on the basal level of the efflux of iodide (CHO (CFTR−) cells; 500 μM): do not significantly modify the basal level of the efflux of iodide
effect on the efflux of iodide (CFTR channel [3]): triggers an efflux of iodide, with a similar rate and amplitude, which is increased with respect to the basal level
effect on the efflux of iodide / CFTR channel activation (CFTR channel [1]; CHO (CFTR+) cells): comparable in intensity and rate to that induced by forskoline (5 μM)
activation at 500 µM (CFTR channel [1]; [5]): 110%
level of cell cAMP (intracellular cAMP; 500 μM): The same level of cAMP is reached in the presence of the compounds MPB-07 and rolipram
effect on the efflux of iodide (CFTR channel [4]): stimulates the efflux of iodide

Nc1ncnc2c1nc(Sc1ccc(Cl)cc1)n2[C@@H]1O[C@@H]2COP(=O)(O)O[C@H]2[C@H]1O [c-cpt-AMP, cyclic 8-(4-chlorophenylthio)-adenosine 3′,5′-monophosphate]
effect on the basal level of the efflux of iodide (CHO (CFTR−) cells; 500 μM): has no effect

6-Hydroxbenzo[c]quinolizinium Bromide [MPB-06]
% activation relative to control (CFTR channel [1]; [5]): 53%

Oc1cc2cccc[n+]2c2cc(Cl)ccc12 [MPB-08, 6-Hydroxy, 9-Chlorobenzo[c]quinolizinium Chloride]
activation at 500 µM (CFTR channel [1]; [5]): 22%

Nc1cc2ccccc2c2ccccc12 [MPB-24]
activation at 500 µM (CFTR channel [1]): 18%

Nc1cc2cccc[n+]2c2ccccc12 [MPB-26, 6-Aminobenzo[c]quinolizium]
% activation relative to control (CFTR channel [1]; [5]): 30%

C=C[C@@]1(C)CC(=O)[C@]2(O)[C@@]3(C)[C@@H](O)CCC(C)(C)[C@@H]3[C@H](O)[C@H](OC(C)=O)[C@@]2(C)O1 [forskoline]
effect on the basal level of the efflux of iodide (CHO (CFTR−) cells; 5 μM): do not significantly modify the basal level of the efflux of iodide
% activation relative to control (CFTR channel [1]; efflux of iodide, recombinant CHO (CFTR+) cell, forskoline 5 μM): 109%
effect on cAMP, multiplication factor (intracellular cAMP; 5 μM): about 4

CNc1ccc2oc(C[C@H]3O[C@@]4(CC[C@H]3C)O[C@H]([C@H](C)C(=O)c3ccc[nH]3)[C@H](C)C[C@H]4C)nc2c1C(=O)O [Compound A23187, reference compound]
effect on the basal level of the efflux of iodide (CHO (CFTR−) cells; 10 μM): do not significantly modify the basal level of the efflux of iodide
effect on the efflux of iodide (CFTR channel [1]; CHO (CFTR+) cells, 10 μM): has no effect

Nc1cc2cccc[n+]2c2cccc(Cl)c12 [MPB-04, 6-Amino, 7-Chlorobenzo[c]quinolizinium Chloride]
activation at 500 µM (CFTR channel [1]; [5]): 11%
